Measurements from ChEMBL document CHEMBL5727778, “Pyrimidine derivative and use thereof” (2020).

Biological target: ALK tyrosine kinase receptor (Homo sapiens, UniProt Q9UM73)
Test: Inhibition Assay: 1× Kinase Buffer 50 mM HEPES. pH 7.5 0.0015% Brij-35 10 mM MgCl2 2 mM DTT 2) stop buffer 100 mM HEPES, pH 7.5 0.015% Brij-35 0.2% Coating Reagent #3 50 mM EDTAPrepare a Compound Solution to be Tested Step 2.1 Dilute the compound to 50× of the final desired highest inhibitor concentration in reaction by 100% DMSO. Transfer 100 μl of this compound dilution to a well in a 96-well plate. For example, if desired highest inhibitor concentration is 1 μM, then prepare 50 μM of compound DMSO solution in this step.

Chain of ALK tyrosine kinase receptor (Q9UM73 whole entry): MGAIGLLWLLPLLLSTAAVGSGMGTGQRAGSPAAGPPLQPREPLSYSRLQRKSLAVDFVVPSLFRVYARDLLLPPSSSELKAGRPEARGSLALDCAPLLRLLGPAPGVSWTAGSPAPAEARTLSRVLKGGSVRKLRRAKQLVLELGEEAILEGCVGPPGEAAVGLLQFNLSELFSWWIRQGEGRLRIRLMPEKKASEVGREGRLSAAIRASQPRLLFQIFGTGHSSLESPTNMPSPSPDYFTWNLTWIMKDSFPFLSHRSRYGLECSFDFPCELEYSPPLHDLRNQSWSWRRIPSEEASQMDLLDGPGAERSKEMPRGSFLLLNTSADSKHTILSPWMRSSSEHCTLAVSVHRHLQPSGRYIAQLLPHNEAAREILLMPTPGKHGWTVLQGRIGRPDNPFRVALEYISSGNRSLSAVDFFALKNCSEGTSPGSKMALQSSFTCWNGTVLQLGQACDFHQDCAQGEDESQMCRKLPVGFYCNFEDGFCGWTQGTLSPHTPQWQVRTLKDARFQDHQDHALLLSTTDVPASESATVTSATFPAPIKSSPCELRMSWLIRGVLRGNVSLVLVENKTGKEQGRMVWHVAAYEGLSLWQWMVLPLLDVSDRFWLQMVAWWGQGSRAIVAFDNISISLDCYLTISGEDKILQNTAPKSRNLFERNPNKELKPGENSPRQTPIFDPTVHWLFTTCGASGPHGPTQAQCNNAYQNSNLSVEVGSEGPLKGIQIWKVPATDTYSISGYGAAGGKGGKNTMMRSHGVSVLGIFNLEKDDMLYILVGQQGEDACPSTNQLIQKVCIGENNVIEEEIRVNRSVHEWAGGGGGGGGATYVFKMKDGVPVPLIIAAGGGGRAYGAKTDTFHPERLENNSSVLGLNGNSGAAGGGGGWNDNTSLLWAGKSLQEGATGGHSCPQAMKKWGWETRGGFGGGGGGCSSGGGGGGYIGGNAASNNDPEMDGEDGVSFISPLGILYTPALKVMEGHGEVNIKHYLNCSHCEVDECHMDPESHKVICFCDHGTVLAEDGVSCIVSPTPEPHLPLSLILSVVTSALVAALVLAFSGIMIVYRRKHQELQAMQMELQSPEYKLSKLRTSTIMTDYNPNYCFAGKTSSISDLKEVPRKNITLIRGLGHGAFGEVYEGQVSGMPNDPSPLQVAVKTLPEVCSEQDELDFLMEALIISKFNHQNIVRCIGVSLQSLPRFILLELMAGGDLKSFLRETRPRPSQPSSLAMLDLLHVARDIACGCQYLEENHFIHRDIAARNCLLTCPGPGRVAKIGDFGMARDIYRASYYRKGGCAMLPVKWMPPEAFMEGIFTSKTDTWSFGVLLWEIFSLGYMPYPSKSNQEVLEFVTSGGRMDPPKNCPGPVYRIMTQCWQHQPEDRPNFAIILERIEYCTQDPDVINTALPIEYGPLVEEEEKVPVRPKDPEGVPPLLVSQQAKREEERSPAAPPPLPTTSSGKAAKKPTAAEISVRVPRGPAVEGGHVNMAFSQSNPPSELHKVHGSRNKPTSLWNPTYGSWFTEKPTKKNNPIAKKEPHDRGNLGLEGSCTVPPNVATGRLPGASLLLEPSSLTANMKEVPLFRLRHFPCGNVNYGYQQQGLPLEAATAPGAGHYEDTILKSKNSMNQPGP

IC50, < 1 nM:
CC(C)S(=O)(=O)c1ccccc1Nc1nc(Nc2ccc(N3CCC(N(C)C)CC3)cc2OC(F)F)ncc1Cl, COc1cc(N2CCOCC2)ccc1Nc1ncc(Cl)c(Nc2ccsc2S(=O)(=O)C(C)C)n1, COc1cc(N2CCC(N(C)C)CC2)ccc1Nc1ncc(Cl)c(Nc2ccsc2S(=O)(=O)C(C)C)n1, COc1cc(N2CCC(N3CCC(N(C)C)CC3)CC2)ccc1Nc1ncc(Cl)c(Nc2ccccc2S(=O)(=O)C(C)C)n1, COc1cc(N2CCC(N3CCOCC3)CC2)ccc1Nc1ncc(Cl)c(Nc2ccsc2S(=O)(=O)C(C)C)n1, COc1cc(N2CCC(N(C)C)CC2)ccc1Nc1ncc(Cl)c(Nc2ccccc2S(=O)(=O)C(C)C)n1, COc1cc(N2CCN(C)CC2)ccc1Nc1ncc(Cl)c(Nc2ccsc2S(=O)(=O)C(C)C)n1, COc1cc(N2CCC(O)CC2)ccc1Nc1ncc(Cl)c(Nc2ccsc2S(=O)(=O)C(C)C)n1, COc1cc(N2CCN(C)CC2)ccc1Nc1ncc(Cl)c(Nc2ccccc2S(=O)(=O)C(C)C)n1
